Measured values as given in patent US5925621A, “Method for preventing sexually transmitted diseases” (priority 1997, dated 1999).

Key:
MT2 cells = test: cytotoxicity of test compound towards host (MT2) cells; type: cell-based; conditions: at the levels of Example 5
Description: Serial dilutions of the test compounds (ranging from 0.1 μg/ml to 1.0 mg/ml) were added to HIV-1 virus such that 50 μl inoculum produced between 70 to 100 syncytia per well in untreated wells containing MT2 cells. The HIV-1 used was strain IIIs propagated in, and harvested from, a T4-lymphobastoid cell line. Each serial dilution of the test compound with virus was placed in each of three wells containing MT2 cells. The test compound alone was added to a fourth well containing MT2 cells to test for possible cytotoxicity. Triplicate virus control samples (no added test compounds but containing the equivalent amounts of the RPMI medium) were also included.

[1] = tested on: sheep testicular hyaluronidase; test: hyaluronidase inhibition (hyaluronic acid hydrolysis); type: biochemical; conditions: 10 minutes preincubation, pH 5.5; inactive = no inhibition at 1 mg/ml
Description: Hyaluronidase activity was quantitatively determined by measuring the extent of hyaluronic acid hydrolysis (i.e., the concentration of N-acetylglucosamine-reactive material formed from enzyme activity). Reaction mixtures (0.25 ml) containing the following were prepared: test compound (variable concentration); 0.1 M sodium acetate; 0.15 M sodium chloride; pH adjusted to 5.5; 7.2 units sheep testicular hyaluronidase (Sigma, Type III; H-2251) contained in an acetate buffer; 0.3 mg/ml hyaluronic acid (Sigma, from bovine vitreous humor; H-7630). The enzyme was preincubated with the test agent (1 mg/ml for screening purposes) for 10 minutes before starting the reaction by the addition of hyaluronic acid. The enzyme reaction was determined using the method of Aronson and Davidson (J. Biol. Chem. 241 437-440 (1967)). The reaction mixture was incubated for 30 minutes at room temperature. The reaction product was determined calorimetrically with p-dimethylaminobenzaldehyde (Reissig et al., J. Biol. Chem. 217 959-966 (1965)) by measuring the absorbance at 545 nm.
The reversibility of the hyaluronidase was determined by evaluating enzyme activity at different levels of enzyme (Ackermann and Potter, Proc. Soc. Exp. Biol. Med. 72 1-9 (1949)).

Lactobacillus gasseri = test: effect on normal vaginal flora (Lactobacillus gasseri growth); type: cell-based; conditions: 0.5 mg/ml
Description: This example illustrates the effect of the inhibitory agents of this invention on the normal vaginal flora. Lactobacillus gasseri, which is found in normal vaginal flora, was obtained from the American Type Culture Collection (Rockville, Md.) and cultured under anaerobic conditions at 37° C. in the presence of the desired test agents. Control samples without added test agents were also run. Samples were collected at twenty minute intervals starting at 120 minutes after the start of incubation through 240 minutes. The absorbance at 550 nm was used to estimate the cell density and inhibitory effects. Nonoxynol-9 was also evaluated for comparison purposes.

[2] = tested on: vaginal/cervical epithelial and other cells; conditions: cited from earlier work

With Nonoxynol-9 the “cytotoxic towards the MT2 cells” value (MT2 cells) was “did show cytotoxic effects”, the IC50 hyaluronidase [1] was “inactive” and the “inhibition of growth of Lactobacillus gasseri” value (Lactobacillus gasseri) was “about 60%”. For the same substance, the “lowest concentration that can injure vaginal/cervical epithelial and other cells” value [2] was “about 0.0005%”.
